In PMC6152116, “Sulfonamide-Linked Ciprofloxacin, Sulfadiazine and Amantadine Derivatives as a Novel Class of Inhibitors of Jack Bean Urease; Synthesis, Kinetic Mechanism and Molecular Docking” (Molecules : A Journal of Synthetic Chemistry and Natural …, 2017):
Several values for one entry are separate records, joined by “and”; a condition that tells them apart may be missing. Equal values may be shown once. Entries after “also recorded” stand apart in the source; their conditions may differ. Read-outs that look alike come from different tables or passages of the source.

How the values were obtained:
jack bean urease [1] = target: T1, jack bean urease (Canavalia ensiformis, UniProt P07374); assay: biochemical
Description: The jack bean urease action was determined by measuring the ammonia produced by the indophenol method described by Weatherburn. The reaction mixtures, containing 50 µL of buffer (100 mM urea, 10 mM dibasic potassium phosphate, 1 mM EDTA and 10 mM LiCl, pH 8.2), 20 µL of sample and 20 µL of the jack bean urease (5 U/mL) were added in a 96-well plate and the plate was incubated at 37 °C for 30 min. After incubation, 50 μL of phenol reagent (1%, w/v phenol and 0.005%, w/v sodium nitroprusside) and 50 μL of alkali reagents (0.5%, w/v NaOH and 0.1% NaOCl) were added in each well, and again the plate was incubated at 37 °C for 10 min. After the second incubation, the absorbance was checked at 625 nm, using a microplate reader (OPTIMax, Tunable, Sunnyvale, CA, USA). All reactions were performed in triplicate. The urease inhibition activity was calculated according to the following formula:Inhibition (%) = [(B − S)/B] × 100 where B and S are the optical densities of sample and blank. Thiourea was used as reference.

jack bean urease [2] = target: T1, jack bean urease; assay: Kinetic mechanism study of urease inhibition (Lineweaver–Burk plots); type: biochemical; conditions: for Ki′ (ESI dissociation constant): from intercept versus inhibitor concentration; for Inhibition Type: urea as substrate
Description: Kinetic analysis was carried out to determine the mode of inhibition. […] Kinetics were determined by varying the dose of urea in the presence of different doses of compound 3e (0.025, 0.05, 0.01 and 0.02 µM), compound 6a (0.00, 0.0011, 0.0022, and 0.0044 µM), compound 9e (0.00, 0.015, 0.03 and 0.06 µM) and compound 12d (0.0130, 0.026, 0.052, 0.104 and 0.208 µM). In detail the urea doses were varied between 100, 50, 25, 12.5, 6.25 and 3.125 mM mM for urease kinetics studies and the rest of the procedure was same for all kinetic studies as described in the urease inhibition assay protocol. Maximal initial velocities were determined from the initial linear portion of the absorbances up to 10 min after the addition of enzyme at per minute’s intervals. The inhibition type of the enzyme was assayed by Lineweaver–Burk plots of the inverse of velocities (1/V) versus the inverse of substrate concentration 1/[S] mM^−1. The EI dissociation constant Ki was determined by the secondary plot of 1/V versus inhibitor concentration and the ESI dissociation constant Ki′ was calculated from the intercept versus inhibitor concentrations. Urease activity was determined by measuring ammonia production using the indophenol method as reported previously. The results (change in absorbance per min) were recorded at 625 nm using a microplate reader (Optimax Tunable, Sunnyvale, CA, USA).

[3] = Free radical scavenging assay (DPPH); conditions: in comparison to the reference drug vitamin C
Description: Radical scavenging activity was determined by adjusting the already reported 2,2-diphenyl-1-picrylhydrazyl (DPPH) assay method. The assay arrangement comprised 100 µL of DPPH (150 µM), 20 µL of increasing concentrations of test compounds and the volume was adjusted to 200 µL in each well with DMSO. At a room temperature, the reaction mixture was incubated for 30 min. Ascorbic acid (Vitamin C) was utilized as a model inhibitor. The assay estimations were done by using a micro plate reader (OPTIMax, Tunable, Sunnyvale, CA, USA) at 517 nm. The response rates were analyzed and the percent inhibition caused by the presence of the tested inhibitor was calculated. Each concentration was analyzed in three independent experiments run thrice.

[4] = 100 mM urea, pH 8.2, 37 °C, read-out: Urease Activity IC50 ± SEM
[5] = Urease Activity IC50 ± SEM, 100 mM urea, pH 8.2, 37 °C

T1 sequence (P07374 whole entry, looked up): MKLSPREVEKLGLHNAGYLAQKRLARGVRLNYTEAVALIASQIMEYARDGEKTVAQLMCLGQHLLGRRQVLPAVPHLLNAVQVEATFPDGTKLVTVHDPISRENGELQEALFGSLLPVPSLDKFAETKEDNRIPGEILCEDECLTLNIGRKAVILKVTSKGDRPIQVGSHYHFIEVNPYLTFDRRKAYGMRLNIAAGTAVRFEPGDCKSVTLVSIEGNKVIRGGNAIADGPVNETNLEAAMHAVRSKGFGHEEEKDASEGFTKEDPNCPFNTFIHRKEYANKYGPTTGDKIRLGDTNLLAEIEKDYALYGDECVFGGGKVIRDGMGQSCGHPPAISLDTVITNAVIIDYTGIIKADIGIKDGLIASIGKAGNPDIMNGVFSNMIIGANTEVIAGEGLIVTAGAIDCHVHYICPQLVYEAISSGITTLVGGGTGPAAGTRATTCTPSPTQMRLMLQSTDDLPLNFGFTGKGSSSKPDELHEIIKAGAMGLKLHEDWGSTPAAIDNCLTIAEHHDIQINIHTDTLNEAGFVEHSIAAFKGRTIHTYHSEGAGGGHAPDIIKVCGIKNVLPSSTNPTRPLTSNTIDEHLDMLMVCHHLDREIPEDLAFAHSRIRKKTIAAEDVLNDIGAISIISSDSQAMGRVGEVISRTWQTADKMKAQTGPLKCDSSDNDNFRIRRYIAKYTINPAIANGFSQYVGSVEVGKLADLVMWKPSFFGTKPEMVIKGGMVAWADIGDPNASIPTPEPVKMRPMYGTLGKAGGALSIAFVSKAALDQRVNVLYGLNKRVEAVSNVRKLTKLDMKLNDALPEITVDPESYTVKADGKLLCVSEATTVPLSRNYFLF

Compound: 2-((2,3-Dichlorophenyl)sulfonyl)hydrazine-1-carbothioamide [Compound 6d]
- IC50 (jack bean urease [1]; [4]): 95 ± 4 nM

Compound: 2-((3,5-Dimethylphenyl)sulfonyl)hydrazine-1-carbothioamide [Compound 6e]
- IC50 (jack bean urease [1]; [4]): 174 ± 9 nM

Compound: 2-((4-Methyl-3-nitrophenyl)sulfonyl)hydrazine-1-carbothioamide [Compound 6f]
- IC50 (jack bean urease [1]; [4]): 127 ± 7.6 nM

Compound: Cc1ccc(S(=O)(=O)Nc2ccc(S(=O)(=O)Nc3ncccn3)cc2)cc1 [Compound 6a, 4-Methyl-N-(4-(N-(pyrimidin-2-yl)sulfamoyl)phenyl)benzenesulfonamide]
- IC50 (jack bean urease [1]; [5]): 2.23 nM and 2.2 nM and 2 nM
- melting point: 223 to 225 °C
- Ki (jack bean urease [2]): 1.1 nM
- Ki′ (ESI dissociation constant) (jack bean urease [2]): 1.6 nM
- Vmax (jack bean urease [2]; inhibitor dose 0.0011 µM): 0.00769 ΔA/Min
- Vmax (jack bean urease [2]; inhibitor dose 0.0022 µM): 0.00493 ΔA/Min
- Vmax (jack bean urease [2]; inhibitor dose 0.0044 µM): 0.00351 ΔA/Min
- Inhibition Type (jack bean urease [2]): mixed type of mode inhibition

Compound: O=[N+]([O-])c1ccccc1S(=O)(=O)Nc1ccc(S(=O)(=O)Nc2ncccn2)cc1 [Compound 6b, 2-Nitro-N-(4-(N-(pyrimidin-2-yl)sulfamoyl)phenyl)benzenesulfonamide]
- IC50 (jack bean urease [1]; read-out: Urease Activity IC50 ± SEM, 100 mM urea, pH 8.2, 37 °C): 233 ± 11 nM

Compound: O=S(=O)(Nc1ccc(S(=O)(=O)Nc2ncccn2)cc1)c1ccc(-c2ccccc2)cc1 [Compound 6c, N-(4-(N-(pyrimidin-2-yl)sulfamoyl)phenyl)-[1,1′-biphenyl]-4-sulfonamide]
- IC50 (jack bean urease [1]; [5]): 141 ± 7 nM
- melting point: 168 to 170 °C

Compound: Cc1ccc(S(=O)(=O)NC23CC4CC(CC(C4)C2)C3)cc1 [Compound 9a, N-(Adamantan-1-yl)-4-methylbenzenesulfonamide]
- IC50 (jack bean urease [1]; [5]): 289 ± 15 nM

Compound: O=[N+]([O-])c1ccc(S(=O)(=O)NC23CC4CC(CC(C4)C2)C3)cc1 [Compound 9b, N-(Adamantan-1-yl)-4-nitrobenzenesulfonamide]
- IC50 (jack bean urease [1]; [5]): 27.6 ± 1 nM

Compound: O=S(=O)(NC12CC3CC(CC(C3)C1)C2)c1ccc(-c2ccccc2)cc1 [Compound 9c, N-(Adamantan-1-yl)-[1,1′-biphenyl]-4-sulfonamide]
- IC50 (jack bean urease [1]; [5]): 17.8 nM

Compound: O=S(=O)(NC12CC3CC(CC(C3)C1)C2)c1cccc(Cl)c1Cl [Compound 9d, N-(Adamantan-1-yl)-2,3-dichlorobenzenesulfonamide]
- IC50 (jack bean urease [1]; [5]): 53.3 ± 1 nM
- melting point: 221 to 230 °C

Compound: Cc1cc(C)cc(S(=O)(=O)NC23CC4CC(CC(C4)C2)C3)c1 [Compound 9e, N-(Adamantan-1-yl)-3,5-dimethylbenzenesulfonamide]
- IC50 (jack bean urease [1]; [5]): 25 nM
- melting point: 162 to 164 °C
- Ki (jack bean urease [2]): 22.5 nM
- Vmax (jack bean urease [2]; inhibitor dose 0.013 µM): 0.00299 ΔA/Min
- Vmax (jack bean urease [2]; inhibitor dose 0.015 µM): 0.00127 ΔA/Min
- Vmax (jack bean urease [2]; inhibitor dose 0.03 µM): 0.00108 ΔA/Min
- Vmax (jack bean urease [2]; inhibitor dose 0.06 µM): 0.00085 ΔA/Min
- Inhibition Type (jack bean urease [2]): non-competitive mode of inhibition; also recorded: non-competitive mechanism; also recorded: Noncompetitive

Compound: Cc1ccc(S(=O)(=O)NC23CC4CC(CC(C4)C2)C3)cc1[N+](=O)[O-] [Compound 9f, N-(Adamantan-1-yl)-4-methyl-3-nitrobenzenesulfonamide]
- IC50 (jack bean urease [1]; [5]): 55.8 ± 1 nM

Compound: Cc1ccc(S(=O)(=O)NNC(N)=S)cc1 [Compound 12a, 2-Tosylhydrazine-1-carbothioamide]
- IC50 (jack bean urease [1]; [5]): 225 ± 6 nM
- radical scavenging potency [3]: excellent radical scavenging potency

Compound: NC(=S)NNS(=O)(=O)c1ccc([N+](=O)[O-])cc1 [Compound 12b, 2-((4-Nitrophenyl)sulfonyl)hydrazine-1-carbothioamide]
- IC50 (jack bean urease [1]; [5]): 141 ± 4 nM
- melting point: 160 to 162 °C
- radical scavenging potency [3]: excellent radical scavenging potency

Compound: NC(=S)NNS(=O)(=O)c1ccc(-c2ccccc2)cc1 [Compound 12c, 2-([1,1′-Biphenyl]-4-ylsulfonyl)hydrazine-1-carbothioamide]
- IC50 (jack bean urease [1]; [5]): 186 ± 7 nM

Compound: NC(=S)NNS(=O)(=O)c1cccc(Cl)c1Cl [Compound 12d, 2-((2,3-Dichlorophenyl)sulfonyl)hydrazine-1-carbothioamide]
- IC50 (jack bean urease [1]; [5]): 26.6 nM and 26 nM
- melting point: 229 to 231 °C
- Ki (jack bean urease [2]): 53 nM
- Ki′ (ESI dissociation constant) (jack bean urease [2]): 125 nM
- Vmax (jack bean urease [2]; inhibitor dose 0.026 µM): 0.00213 ΔA/Min
- Vmax (jack bean urease [2]; inhibitor dose 0.052 µM): 0.00194 ΔA/Min
- Vmax (jack bean urease [2]; inhibitor dose 0.104 µM): 0.0016 ΔA/Min
- Vmax (jack bean urease [2]; inhibitor dose 0.208 µM): 0.001 ΔA/Min
- Inhibition Type (jack bean urease [2]): mixed type of mode inhibition
- radical scavenging potency [3]: excellent radical scavenging potency

Compound: Cc1cc(C)cc(S(=O)(=O)NNC(N)=S)c1 [Compound 12e, 2-((3,5-Dimethylphenyl)sulfonyl)hydrazine-1-carbothioamide]
- IC50 (jack bean urease [1]; [5]): 96 ± 4 nM
- melting point: 160 to 162 °C
- radical scavenging potency [3]: excellent radical scavenging potency

Compound: Cc1ccc(S(=O)(=O)NNC(N)=S)cc1[N+](=O)[O-] [Compound 12f, 2-((4-Methyl-3-nitrophenyl)sulfonyl)hydrazine-1-carbothioamide]
- IC50 (jack bean urease [1]; [5]): 67 ± 2.9 nM
- melting point: 160 to 163 °C
- radical scavenging potency [3]: excellent radical scavenging potency

Compound: NC(N)=S [Thiourea, reference compound]
- IC50 (jack bean urease [1]; [4]): 17810 ± 96 nM
